Data as given in patent US20050165115A1, “Methods and compositions for predicting compliance with an antidepressant treatment regimen” (priority 2003, published 2005).

How the values were obtained:
[1] = tested on: outpatients 65 years of age or older with major depressive disorder (MDD); details: in vivo
Excerpt: (§1) The study group included 255 outpatients 65 years of age or older with major depressive disorder (MDD) who were randomized to mirtazapine or paroxetine in a double-blind design at 18 U.S. centers. Details of the study design and overall clinical outcomes have been previously described (Schatzberg et al., Am J Geriatr Psychiatry 10(5):541-550 (2002)). […] At baseline all patients scored above the age-adjusted 25th percentile on the Mini Mental State Exam (MMSE), and all had Hamilton Depression Rating Scale (HDRS-17) scores ≧18. Starting doses were 15 mg for mirtazapine and 20 mg for paroxetine. Dosage for both medications was increased to 30 mg after 14 days, with the option to increase to 45 mg of mirtazapine or 40 mg of paroxetine on subsequent visits. Exclusion criteria were clinically significant unstable medical illness, history of treatment resistance, principal psychiatric diagnoses other than MDD, use of other psychotropics, and electroconvulsive therapy (ECT) within the previous 6 months.
(§2) Genomic DNA was extracted from EDTA-treated frozen whole blood by using a Puregene Kit (Gentra Systems, Minneapolis). 5HTTLPR genotypes were determined by PCR and gel electrophoresis as described in Edenberg et al., Psychiatr. Genet. 8(3):193-195 (1998).
(§3) Plasma drug levels were obtained after 4 weeks of treatment as described (Murphy et al., Biol Psychiatry 54:665-673 (2003)). Efficacy outcome measures (determined at baseline and at day 7,14, 21, 28, 42, and 56) included the Hamilton Depression Rating Scale (HDRS-17) (Hamilton et al., Br J Soc Clin Psychol. 6(4):278-296 (1967)) and the Geriatric Depression Scale (GDS) (Yesavage et al., J. Psychiat. Res. 17:37-49 (1983)). Measures related to adverse events included Medication Compliance, Severity of Adverse Events, Time to Discontinuation of Treatment Regimen due to an adverse event, and number of discontinuations due to an adverse event. Statistical methods included analyses of covariance (adjusted for baseline scores), Cochran-Mantel-Haenszel statistics, and Kaplan-Meier survival analyses. […] Analyses were performed for the entire group and also with 20 ethnic minority patients omitted.

[2] = tested on: outpatients 65 years of age or older with major depressive disorder (MDD); assay: Efficacy outcome measures (HDRS-17, GDS) in double-blind mirtazapine vs paroxetine study, stratified by 5HTTLPR genotype; assay type: in vivo, human; details: for HAMD-17 or GDS, differences among the three genotype groups: patients stratified by 5HTTLPR genotype (S/S, S/L, L/L), any time point
Excerpt: Genet. 8(3):193-195 (1998).

[3] = in vivo
Excerpt: as §1, §2, §3

Fc1ccc([C@@H]2CCNC[C@H]2COc2ccc3c(c2)OCO3)cc1 [paroxetine]
subjects who discontinued treatment regimen due to adverse events, 5HTTLPR S/S and 5HT2A C/C genotypes ([1]; human): 7 of 10 | adverse events associated with S/S discontinuations [1]: gastrointestinal complaints, fatigue, agitation, sweating, and dizziness | effects of 5HTTLPR and 5HT2A 102 T/C on discontinuation of treatment regimen due to adverse events [1]: significant effects | frequency of discontinuation of treatment regimen, L/L genotype [1]: fewest | frequency of discontinuation of treatment regimen, S/L genotype [1]: intermediate frequency | frequency of discontinuation of treatment regimen, S/S genotype [1]: most frequent | interaction term 5HTTLPR x 5HT2A 102 T/C on discontinuation due to adverse events [1]: not significant | relationship between number of S alleles and discontinuations due to adverse events, Caucasian patients [1]: positive linear relationship | relationship between number of S alleles and probability of discontinuation due to adverse events [1]: positive linear relationship | risk of discontinuation of the treatment regimen due to adverse events, S/L vs L/L genotype [1]: significantly greater risk | severity of adverse events, S/S vs L/L genotype [1]: greater severity | subjects who discontinued treatment regimen, L/L and T/T genotypes [1]: none | HDRS, carriers of the S allele vs others ([2]; FIG. 2B): No differences | GDS scores, carriers of the S allele ([2]; days 7 (p=0.003) and 28 (p=0.04), adjusted for baseline body weight, higher = more depressed): significantly higher scores | HAMD-17 or GDS, differences among the three genotype groups [2]: no significant differences

CN1CCN2c3ncccc3Cc3ccccc3C2C1 (stereo not drawn) [mirtazapine]
adverse events associated with L/L genotype discontinuations [1]: drowsiness, dizziness, and anxiety | frequency of discontinuation of treatment regimen, L/L genotype [1]: most frequent | relationship between number of L alleles and discontinuation due to adverse events, Caucasian patients [1]: positive linear relationship | relationship between number of L alleles and probability of discontinuation due to adverse events [1]: positive linear relationship | severity of adverse events, L/L vs S/S genotype [1]: greater severity | plasma levels at day 28, differences among the genotype groups [3]: no significant differences | GDS scores, S carriers vs others ([2]; after adjusting for baseline difference, any subsequent time point): not significantly different | HDRS scores, S allele carriers ([2]; day 14, less depressed, p<0.27): lower HDRS scores | HAMD-17 or GDS, differences among the three genotype groups [2]: no significant differences
